Source: patent publication US20250282799A1, “SUBSTITUTED PYRIDO[4,3-d]PYRIMIDINES AS KRAS MODULATORS” (Alterome Therapeutics, Inc., priority 2023, published 2025)

Test system: KRAS G12V dependent lung adenocarcinoma cell line, NCI-H441
Experiment: Cellular pERK (Thr202/Tyr204) FRET/HTRF assay
Assay type: cell-based
Settings: Homo sapiens
Outline: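 NCI-H441 cells (KRAS G12V) were seeded and grown overnight at 37 °C, 5% CO2, then treated with compound in DMSO for 1 hr. Lysates were probed with a Eu3+-cryptate/d2 antibody sandwich against pERK1/2 Thr202/Tyr204 and read by HTRF at 665 nm; IC50 from curve fitting.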

[1] = NCI-H441, cellular pERK (Thr202/Tyr204) HTRF, NCI-H441 cells
[2] = NCI-H441, pERK HTRF, NCI-H441 cells (KRAS G12V)

**Q.** For [2H]C([2H])(Oc1nc(N2CCOC[C@H]3[C@H](F)[C@H]32)c2cnc(-c3cc(N)cc4ccc(F)c(C#C)c34)c(F)c2n1)[C@@]12CCCN1C[C@]1(C[C@@H]1F)C2 (single isomer, unassigned) [Example 313], which IC50 [1] is on record?
**A.** < 50 nM

**Q.** [2H]C([2H])(Oc1nc(N2CCOC[C@H]3[C@H](F)[C@H]32)c2cnc(-c3cc(N)cc4ccc(F)c(C#C)c34)c(F)c2n1)[C@@]12CCCN1C[C@@H](CC#N)C2 (single isomer, unassigned) [Example 314] was tested. Which IC50 [1] did it give?
**A.** < 50 nM

**Q.** For [2H]C([2H])(Oc1nc(N2CCOC[C@H]3[C@H](F)[C@H]32)c2cnc(-c3cc(N)cc4ccc(F)c(C#C)c34)c(F)c2n1)[C@@]12CCCN1C[C@H](CC#N)C2 (single isomer, unassigned) [Example 315], which IC50 [1] is on record?
**A.** < 50 nM

**Q.** With [2H]C([2H])(Oc1nc(N2CCOC[C@@H]3C(F)[C@@H]32)c2cc(F)c(-c3cc(N)cc(C)c3C(F)(F)F)c(F)c2n1)[C@@]12CCCN1C[C@H](F)C2 (stereo in doubt) [Example 170, 3-(6,8-difluoro-4-((1R,7R,8R)-8-fluoro-5-oxa-2-azabicyclo[5.1.0]octan-2-yl)-2-(((2R,7aS)-2-fluorotetrahydro-1H-pyrrolizin-7a(5H)-yl)methoxy-d2)quinazolin-7-yl)-5-methyl-4-(trifluoromethyl)aniline] as the molecule, how does the IC50 [1] read?
**A.** 500 to 10000 nM

**Q.** For [2H]C([2H])(Oc1nc(N2CC[C@H](C#N)C[C@@H]3[C@H](F)[C@@H]32)c2cnc(-c3cc(N)cc4ccc(F)c(C#C)c34)c(F)c2n1)[C@@]12CCCN1C[C@H](F)C2 (stereo in doubt) [Example 309, (1R,SR,7S,8S)-2-(7-(3-amino-8-ethynyl-7-fluoronaphthalen-1-yl)-8-fluoro-2-(((2R,7aS)-2-fluorotetrahydro-1H-pyrrolizin-7a(5H)-yl)methoxy-d2)pyrido[4,3-d]pyrimidin-4-yl)-8-fluoro-2-azabicyclo[5.1.0]octane-5-carbonitrile], which IC50 [1] is on record?
**A.** 50 to 500 nM

**Q.** How did the IC50 [2] turn out when C#Cc1c(F)ccc2cc(O)cc(-c3ncc4c(N5CCCC[C@@H]6C[C@@H]65)nc(OC[C@@]56CCCN5C[C@H](F)C6)nc4c3F)c12 [Example 1, 4-(4-((1S,7R)-2-Azabicyclo[5.1.0]octan-2-yl)-8-fluoro-2-(((2R,7aS)-2-fluorotetrahydro-1H-pyrrolizin-7a(5H)-yl)methoxy)pyrido[4,3-d]pyrimidin-7-yl)-5-ethynyl-6-fluoronaphthalen-2-ol] was run?
**A.** 500 to 10000 nM

**Q.** For C#Cc1c(F)ccc2cc(O)cc(-c3ncc4c(N5CCCC[C@H]6C[C@H]65)nc(OC[C@@]56CCCN5C[C@H](F)C6)nc4c3F)c12 [Example 2, 4-(4-((1R,7S)-2-azabicyclo[5.1.0]octan-2-yl)-8-fluoro-2-(((2R,7aS)-2-fluorotetrahydro-1H-pyrrolizin-7a(5H)-yl)methoxy)pyrido[4,3-d]pyrimidin-7-yl)-5-ethynyl-6-fluoronaphthalen-2-ol], which IC50 [2] is on record?
**A.** < 50 nM

**Q.** For C#Cc1c(F)ccc2cc(O)cc(-c3ncc4c(N5CCC6CC6CC5)nc(OC[C@@]56CCCN5C[C@H](F)C6)nc4c3F)c12 (stereo partly drawn) [Example 3, 4-(4-(4-Azabicyclo[5.1.0]octan-4-yl)-8-fluoro-2-(((2R,7aS)-2-fluorotetrahydro-1H-pyrrolizin-7a(5H)-yl)methoxy)pyrido[4,3-d]pyrimidin-7-yl)-5-ethynyl-6-fluoronaphthalen-2-ol], which IC50 [2] is on record?
**A.** < 50 nM

**Q.** How did the IC50 [2] turn out when C#Cc1c(F)ccc2cc(N)cc(-c3ncc4c(N5CCCC[C@@H]6C[C@@H]65)nc(OC[C@@]56CCCN5C[C@H](F)C6)nc4c3F)c12 [Example 4, 4-(4-((1S,7R)-2-azabicyclo[5.1.0]octan-2-yl)-8-fluoro-2-(((2R,7aS)-2-fluorotetrahydro-1H-pyrrolizin-7a(5H)-yl)methoxy)pyrido[4,3-d]pyrimidin-7-yl)-5-ethynyl-6-fluoronaphthalen-2-amine] was run?
**A.** 500 to 10000 nM

**Q.** Which IC50 [2] does the source give for C#Cc1c(F)ccc2cc(O)cc(-c3ncc4c(N5CCCCC6C5C6(F)F)nc(OC[C@@]56CCCN5C[C@H](F)C6)nc4c3F)c12 (stereo partly drawn) [Example 6, 4-(4-(8,8-Difluoro-2-azabicyclo[5.1.0]octan-2-yl)-8-fluoro-2-(((2R,7aS)-2-fluorotetrahydro-1H-pyrrolizin-7a(5H)-yl)methoxy)pyrido[4,3-d]pyrimidin-7-yl)-5-ethynyl-6-fluoronaphthalen-2-ol] here?
**A.** < 50 nM

**Q.** With [2H]C([2H])(Oc1nc(N2CCCC[C@@H]3C[C@@H]32)c2cnc(-c3cc(N)cc4cc(F)c(F)c(C#C)c34)c(F)c2n1)[C@@]12CCCN1C[C@H](F)C2 [Example 7, 4-(4-((1S,7R)-2-Azabicyclo[5.1.0]octan-2-yl)-8-fluoro-2-(((2R,7aS)-2-fluorotetrahydro-1H-pyrrolizin-7a(5H)-yl)methoxy-d2)pyrido[4,3-d]pyrimidin-7-yl)-5-ethynyl-6,7-difluoronaphthalen-2-amine] as the molecule, how does the IC50 [2] read?
**A.** 500 to 10000 nM

**Q.** How did the IC50 [2] turn out when [2H]C([2H])(Oc1nc(N2CCC3CC3CC2)c2cnc(-c3cc(N)cc4cc(F)c(F)c(C#C)c34)c(F)c2n1)[C@@]12CCCN1C[C@H](F)C2 (stereo partly drawn) [Example 9, 4-(4-(4-Azabicyclo[5.1.0]octan-4-yl)-8-fluoro-2-(((2R,7aS)-2-fluorotetrahydro-1H-pyrrolizin-7a(5H)-yl)methoxy-d2)pyrido[4,3-d]pyrimidin-7-yl)-5-ethynyl-6,7-difluoronaphthalen-2-amine] was run?
**A.** 50 to 500 nM

**Q.** For [2H]C([2H])(Oc1nc(N2CCCO[C@H]3C[C@H]32)c2cnc(-c3cc(O)cc4ccc(F)c(C#C)c34)c(F)c2n1)[C@@]12CCCN1C[C@H](F)C2 [Example 10, 4-(4-((1S,7R)-2-Oxa-6-azabicyclo[5.1.0]octan-6-yl)-8-fluoro-2-(((2R,7aS)-2-fluorotetrahydro-1H-pyrrolizin-7a(5H)-yl)methoxy-d2)pyrido[4,3-d]pyrimidin-7-yl)-5-ethynyl-6-fluoronaphthalen-2-ol], which IC50 [2] is on record?
**A.** < 50 nM

**Q.** For [2H]C([2H])(Oc1nc(N2CCCO[C@@H]3C[C@@H]32)c2cnc(-c3cc(O)cc4ccc(F)c(C#C)c34)c(F)c2n1)[C@@]12CCCN1C[C@H](F)C2 [Example 11, 4-(4-((1R,7S)-2-Oxa-6-azabicyclo[5.1.0]octan-6-yl)-8-fluoro-2-(((2R,7aS)-2-fluorotetrahydro-1H-pyrrolizin-7a(5H)-yl)methoxy-d2)pyrido[4,3-d]pyrimidin-7-yl)-5-ethynyl-6-fluoronaphthalen-2-ol], which IC50 [2] is on record?
**A.** 50 to 500 nM

**Q.** For C#Cc1c(F)ccc2cc(O)cc(-c3ncc4c(N5CCCC6CC6C5)nc(OC[C@@]56CCCN5C[C@H](F)C6)nc4c3F)c12 (stereo partly drawn) [Example 12, 4-(4-(3-Azabicyclo[5.1.0]octan-3-yl)-8-fluoro-2-(((2R,7aS)-2-fluorotetrahydro-1H-pyrrolizin-7a(5H)-yl)methoxy)pyrido[4,3-d]pyrimidin-7-yl)-5-ethynyl-6-fluoronaphthalen-2-ol], which IC50 [2] is on record?
**A.** < 50 nM

**Q.** With [2H]C([2H])(Oc1nc(N2CCCO[C@H]3C[C@H]32)c2cnc(-c3cc(N)cc4cc(F)c(F)c(C#C)c34)c(F)c2n1)[C@@]12CCCN1C[C@H](F)C2 [Example 17, 4-(4-((1S,7R)-2-Oxa-6-azabicyclo[5.1.0]octan-6-yl)-8-fluoro-2-(((2R,7aS)-2-fluorotetrahydro-1H-pyrrolizin-7a(5H)-yl)methoxy-d2)pyrido[4,3-d]pyrimidin-7-yl)-5-ethynyl-6,7-difluoronaphthalen-2-amine] as the molecule, how does the IC50 [2] read?
**A.** < 50 nM

**Q.** Which IC50 [2] does the source give for [2H]C([2H])(Oc1nc(N2CCCO[C@@H]3C[C@@H]32)c2cnc(-c3cc(N)cc4cc(F)c(F)c(C#C)c34)c(F)c2n1)[C@@]12CCCN1C[C@H](F)C2 [Example 18, 4-(4-((1R,7S)-2-Oxa-6-azabicyclo[5.1.0]octan-6-yl)-8-fluoro-2-(((2R,7aS)-2-fluorotetrahydro-1H-pyrrolizin-7a(5H)-yl)methoxy-d2)pyrido[4,3-d]pyrimidin-7-yl)-5-ethynyl-6,7-difluoronaphthalen-2-amine] here?
**A.** 500 to 10000 nM

**Q.** Which IC50 [2] does the source give for [2H]C([2H])(Oc1nc(N2CCOC[C@@H]3[C@H]2C3(F)F)c2cnc(-c3cc(N)cc4cc(F)c(F)c(C#C)c34)c(F)c2n1)[C@@]12CCCN1C[C@H](F)C2 [Example 19, 4-(4-((1S,7S)-8,8-Difluoro-5-oxa-2-azabicyclo[5.1.0]octan-2-yl)-8-fluoro-2-(((2R,7aS)-2-fluorotetrahydro-1H-pyrrolizin-7a(5H)-yl)methoxy-d2)pyrido[4,3-d]pyrimidin-7-yl)-5-ethynyl-6,7-difluoronaphthalen-2-amine] here?
**A.** < 50 nM

**Q.** With [2H]C([2H])(Oc1nc(N2CCOC[C@H]3[C@@H]2C3(F)F)c2cnc(-c3cc(N)cc4cc(F)c(F)c(C#C)c34)c(F)c2n1)[C@@]12CCCN1C[C@H](F)C2 [Example 20, 4-(4-((1R,7R)-8,8-Difluoro-5-oxa-2-azabicyclo[5.1.0]octan-2-yl)-8-fluoro-2-(((2R,7aS)-2-fluorotetrahydro-1H-pyrrolizin-7a(5H)-yl)methoxy-d2)pyrido[4,3-d]pyrimidin-7-yl)-5-ethynyl-6,7-difluoronaphthalen-2-amine] as the molecule, how does the IC50 [2] read?
**A.** 500 to 10000 nM

**Q.** [2H]C([2H])(Oc1nc(N2CCCO[C@H]3[C@@H](F)[C@H]32)c2cnc(-c3cc(N)cc4cc(F)c(F)c(C#C)c34)c(F)c2n1)[C@@]12CCCN1C[C@H](F)C2 [Example 21, 5-Ethynyl-6,7-difluoro-4-(8-fluoro-4-((1R,7S,8S)-8-fluoro-2-oxa-6-azabicyclo[5.1.0]octan-6-yl)-2-(((2R,7aS)-2-fluorotetrahydro-1H-pyrrolizin-7a(5H)-yl)methoxy-d2)pyrido[4,3-d]pyrimidin-7-yl)naphthalen-2-amine] was tested. Which IC50 [2] did it give?
**A.** 500 to 10000 nM

**Q.** How did the IC50 [2] turn out when [2H]C([2H])(Oc1nc(N2CCCO[C@@H]3[C@H](F)[C@@H]32)c2cnc(-c3cc(N)cc4cc(F)c(F)c(C#C)c34)c(F)c2n1)[C@@]12CCCN1C[C@H](F)C2 [Example 22, 5-Ethynyl-6,7-difluoro-4-(8-fluoro-4-((1S,7R,8R)-8-fluoro-2-oxa-6-azabicyclo[5.1.0]octan-6-yl)-2-(((2R,7aS)-2-fluorotetrahydro-1H-pyrrolizin-7a(5H)-yl)methoxy-d2)pyrido[4,3-d]pyrimidin-7-yl)naphthalen-2-amine] was run?
**A.** 50 to 500 nM
